Patent US3937695A, “P-Glu-Trp-Ser-Tyr-D-Lys-Leu-Arg-Pro-Gly-NH2 and intermediates” (American Home Products Corporation, priority 1974, dated 1976)
Where a SMILES comes first, the peptide text is derived from it. [ ]: non-standard residue; d: D form. pGlu = O=C1CC[C@@H](C(=O)O)N1

Test system: ovulation in female rats
Test: Anti-ovulatory test in proestrous female rats
Assay type: in vivo, Sprague-Dawley rats
Method: In vivo tests were conducted with female rats (225 to 250 grams body weight). […] The test was conducted with mature Sprague-Dawley rats, unanesthetized, proestrous rats. On the afternoon of proestrous, each rat in the test group received six subcutaneous injections of the acetate salt of formula I in corn oil, each injection being given a half hour following the previous injection. The rats are sacrificed the next morning and the number of animals ovulating and the number of ova shed are recorded following the procedure described by E. S. France, Neuroendocrinology 6, pp 77-89 (1970). The absence of or a significant decrease in the number of ova is the criterion for an anti-ovulation effect.

## CC(C)C[C@H](NC(=O)[C@@H](CCCCN)NC(=O)[C@H](Cc1ccc(O)cc1)NC(=O)[C@H](CO)NC(=O)[C@H](Cc1c[nH]c2ccccc12)NC(=O)[C@@H]1CCC(=O)N1)C(=O)N[C@@H](CCCNC(=N)N)C(=O)N1CCC[C@H]1C(=O)NCC(N)=O [Example 3, L-Pyroglutamyl-L-tryptophyl-L-seryl-L-tyrosyl-D-lysyl-L-leucyl-L-arginyl-L- prolyl-glycinamide] ([pGlu]WSY[dK]LRPG-NH2)
1 mg per injection, six subcutaneous injections in corn oil, half an hour apart, on the afternoon of proestrous, rats sacrificed next morning
  Inhibition of ovulation: complete inhibition of ovulation
Mature unanesthetized proestrous female Sprague-Dawley rats (225 to 250 g), dose of about 24 mg/kg, subcutaneous in corn oil
  Ovulation inhibition: all of the rats tested
